{"source": "patent US20230093975A1", "about": "“I[…] FOR TREATING CENTRAL NERVOUS SYSTEM DISORDERS” (priority 2021, published 2023)", "key": {"[1]": {"assay": "Oral rivastigmine pharmacokinetics and estimated CSF uptake (Exelon label)", "format": "in vivo", "conditions": "plasma volume 2750 mL, CSF volume 150 mL", "procedure": "Drug coating and formulation development. The absolute bioavailability of oral rivastigmine is approximately 40%, and the AUC1-12 h cerebral spinal fluid (CSF)/plasma ratio is about 40% (Novartis Exelon® Capsules and Oral Solution Prescribing Information). An estimated 0.87% of the rivastigmine oral dose is absorbed and distributed into the CSF. Thus, the daily CSF uptake of this drug is estimated to be between 26-105 μg. As a starting point for the formulation development, we will first target to formulate a matrix loaded with rivastigmine which will be released over 30 days in a near linear manner. Bilateral administration of the rivastigmine matrix would result in approximately 21-107 μg rivastigmine delivered to CSF/day, assuming a CSF bioavailability between 10-50%.\nFor oral administration, delivery, an absolute bioavailability of Rivastigmine is about 40% and a mean AUC (area under the curve) 1-12 hr CSF/Plasma is about 40% (Exelon Label). The daily doses delivered to CSF are 26 μg/day, 52 μg/day, 79 μg/day, and 105 μg/day for the oral doses, equating to 1.5 mg BID, 3 mg BID, 4.5 mg BID, and 6 mg BID, respectively. For this estimation, a plasma volume of 2750 mL and a CSF volume of 150 mL are used."}, "[2]": {"conditions": "oral rivastigmine, cited from earlier work"}}, "note": "Where two headings read alike, the source gives them in different places."}
{"smiles": "CCN(C)C(=O)Oc1cccc([C@H](C)N(C)C)c1", "note": "[Rivastigmine]", "values": [{"measurement": "share of oral dose absorbed and distributed into the CSF", "setting": "[1]", "result": 0.87, "unit": "%"}, {"measurement": "AUC1-12 h CSF/plasma ratio", "setting": "[2]", "result": "about 40%"}, {"measurement": "AUC1-12 h CSF/plasma ratio", "setting": "[2]; listed as rivastigmine", "result": "approximately 40%"}]}
